In patent US8344135B2, “Heterocyclic compound and use thereof” (Takeda Pharmaceutical Company Limited, priority 2007, dated 2013) one finds inhibition and IC50 data, which are given here for 23 compounds.

Each structure is given as a SMILES string.

The target in the first experiment is T1, BRAF (V600E) (Homo sapiens, UniProt P15056, V600E).
T1 construct: area encoding the BRAF kinase domain region, so that the protein contains an N-terminal Flag; made in house; host or cells: SF-21 insect cells infected with recombinant baculovirus BAC-V600E
T1 sequence (P15056 457-717 V600E limits assumed): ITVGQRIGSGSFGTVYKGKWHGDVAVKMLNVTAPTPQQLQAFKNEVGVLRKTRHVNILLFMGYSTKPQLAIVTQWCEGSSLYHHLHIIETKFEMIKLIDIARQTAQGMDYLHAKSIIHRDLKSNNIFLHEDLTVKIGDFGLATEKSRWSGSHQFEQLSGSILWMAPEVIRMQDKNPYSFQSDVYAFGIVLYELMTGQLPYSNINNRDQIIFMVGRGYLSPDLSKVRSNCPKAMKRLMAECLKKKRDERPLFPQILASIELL
Put plainly: Determination of BRAF (V600E) kinase inhibitory activity. Format: biochemical. As to conditions: test compound 1.0 μM; substrate GST-MEK1 (K96R); [γ-32P]ATP; read-out: Inhibitory rate (%) at 1.0 μM. How it is done: Determination of BRAF (V600E) Kinase Inhibitory Activity
A test compound (2.5 μL) dissolved in dimethyl sulfoxide (DMSO) was added to 37.5 μL of a reaction solution (25 mM HEPES (pH 7.5), 10 mM magnesium acetate, 1 mM dithiothreitol) containing BRAF (V600E) enzyme (30 ng) and recombinant type protein GST-MEK1 (K96R) 250 ng, and the mixture was incubated at room temperature for 10 min. ATP solution (10 μL, 2.5 μM ATP, 0.1 μCi [γ-^32P]ATP) was added to the obtained mixture, and the mixture was reacted at room temperature for 20 min. The reaction was quenched by adding 50 μL of ice-cooled 20% trichloroacetic acid (Wako Pure Chemical Industries, Ltd.). The reaction solution was allowed to stand at 4° C. for 30 min, and the acid-precipitable fraction was transferred to GF/C filter plate (Millipore Corporation) using cell harvester (PerkinElmer). The plate was dried at 45° C. for 60 min, and 40 μL of MicroScinti 0 (PerkinElmer) was added thereto. The radioactivity was measured using TopCount (PerkinElmer). The kinase inhibitory rate (%) of the test compound was calculated by the following formula: Inhibitory rate (%)=(1−(count of test compound−blank)÷(control−blank))×100
The count of the solution reacted without addition of the compound was used as a “control”, and the count of the solution without the compound and enzyme was used as a “blank”.
`COc1ccc(NC(=O)c2cccc(C3(C#N)CC3)c2)cc1Oc1ccc2nc(NC(=O)C3CC3)sc2n1` [Example C1, 3-(1-cyanocyclopropyl)-N-[3-({2-[(cyclopropylcarbonyl)amino][1,3]thiazolo[5,4-b]pyridin-5-yl}oxy)-4-methoxyphenyl]benzamide]: the inhibition at 1 µM stood at 100%.
Still for that read-out and setting: the figure for `Cc1ccc(NC(=O)c2cccc(C(F)(F)F)c2)cc1Oc1ccc2nc(NC(=O)C3CC3)sc2n1` [Example C8, N-[3-({2-[(cyclopropylcarbonyl)amino][1,3]thiazolo[5,4-b]pyridin-5-yl}oxy)-4-methylphenyl]-3-(trifluoromethyl)benzamide] is 99%; for `Cc1ccc(NC(=O)c2cccc(C3(C#N)CC3)c2)cc1Oc1ccc2nc(NC(=O)CO)sc2n1` [Example C17, 3-(1-cyanocyclopropyl)-N-(3-{[2-(glycoloylamino)[1,3]thiazolo[5,4-b]pyridin-5-yl]oxy}-4-methylphenyl)benzamide] it is 99%; for `O=C(Nc1cccc(Oc2ccc3nc(NC(=O)C4CC4)sc3n2)c1)c1cccc(C(F)(F)F)c1` [Example C20, N-[3-({2-[(cyclopropylcarbonyl)amino][1,3]thiazolo[5,4-b]pyridin-5-yl}oxy)phenyl]-3-(trifluoromethyl)benzamide] it is 100%.
Consider `CN1CCN(CC(=O)Nc2nc3ccc(Oc4cccc(NC(=O)c5cccc(C(F)(F)F)c5)c4)nc3s2)CC1` [Example C22, N-{3-[(2-{[(4-methylpiperazin-1-yl)acetyl]amino}[1,3]thiazolo[5,4-b]pyridin-5-yl)oxy]phenyl}-3-(trifluoromethyl)benzamide], for which the inhibition at 1 µM was 100%.
Same read-out and setting: under `CN1CCN(CC(=O)Nc2nc3ccc(Oc4cccc(NC(=O)c5cccc(C(C)(C)C#N)c5)c4)nc3s2)CC1` [Example C25, 3-(1-cyano-1-methylethyl)-N-{3-[(2-{[(4-methylpiperazin-1-yl)acetyl]amino}[1,3]thiazolo[5,4-b]pyridin-5-yl)oxy]phenyl}benzamide] stands 100%; under `Cc1ccc(Oc2ccc3nc(NC(=O)c4cocn4)sc3n2)cc1NC(=O)c1cccc(C2(C#N)CC2)c1` [Example C30, N-[5-(3-{[3-(1-cyanocyclopropyl)benzoyl]amino}-4-methylphenoxy)[1,3]thiazolo[5,4-b]pyridin-2-yl]-1,3-oxazole-4-carboxamide], 100%.
Same read-out and setting: the figure for `Cc1ccc(Oc2ccc3nc(NC(=O)CO)sc3n2)cc1NC(=O)c1cccc(C(C)(C)C#N)c1` [Example C36, 3-(1-cyano-1-methylethyl)-N-(5-{[2-(glycoloylamino)[1,3]thiazolo[5,4-b]pyridin-5-yl]oxy}-2-methylphenyl)benzamide] is 100%.

The test system of another experiment is human colon cancer cell HT-29. As to the kind of experiment: Colon cancer cell HT-29 growth suppressive action in vitro. The conditions noted are these: 72 h, HT-29 cells, 3 days culture, SRB staining, read-out: IC50 (nM), cell growth suppression. Format: cell-based. How it is done: Colon Cancer Cell HT-29 Growth Suppressive Action in vitro
A cell suspension (100 μL, 3,000 cells/well) of human colon cancer cell HT-29 (purchased from ATCC) was plated in a 96-well plate, and the cells were cultured at 37° C. in a 5% carbon dioxide gas incubator. The next day, 2-fold serial dilution of each test compound solution (diluted from maximum concentration 20 μM) (100 μL) was added, and the cells were cultured for 3 days. The culture medium containing the test compound was removed, and the cells were washed with phosphate buffer (PBS). A 50% trichloroacetic acid solution was added to the final concentration of 10% (v/v), and the mixture was stood overnight at 4° C., whereby the cells were fixed to the plate. Then, a dye SRB 0.4% (w/v) solution (dissolved in 1% acetic acid) was added at 50 μl/well, whereby the cell protein was fixed and stained (Skehan et al., Journal Of National Cancer Institute, vol. 82, pp. 1107-1112, 1990). The cells were washed 3 times with 1% acetic acid solution (200 μL/well), and 100 μL of an extract (10 mM Tris buffer) was added to extract the dye. The absorbance at an absorption wavelength […] was measured, and cell amount was measured as a protein amount.
As for `COc1ccc(NC(=O)c2cccc(C(C)(C)C#N)c2)cc1Oc1ccc2nc(NC(=O)C3CC3)sc2n1` [Example C6, 3-(1-cyano-1-methylethyl)-N-[3-({2-[(cyclopropylcarbonyl)amino][1,3]thiazolo[5,4-b]pyridin-5-yl}oxy)-4-methoxyphenyl]benzamide], the 50% inhibitory concentration (IC50) is less than 500 nM.
On the same count and under the same terms, under `Cc1ccc(NC(=O)c2cccc(C(C)(C)C#N)c2)cc1Oc1ccc2nc(NC(=O)C3CC3)sc2n1` [Example C12, 3-(1-cyano-1-methylethyl)-N-[3-({2-[(cyclopropylcarbonyl)amino][1,3]thiazolo[5,4-b]pyridin-5-yl}oxy)-4-methylphenyl]benzamide] stands less than 500 nM; under `Cc1ccc(NC(=O)c2cccc(C(C)(C)C#N)c2)cc1Oc1ccc2nc(NC(=O)CN3CCN(C)CC3)sc2n1` [Example C15, 3-(1-cyano-1-methylethyl)-N-{4-methyl-3-[(2-{[(4-methylpiperazin-1-yl)acetyl]amino}[1,3]thiazolo[5,4-b]pyridin-5-yl)oxy]phenyl}benzamide], less than 500 nM.
Same read-out and setting: the figure for `Cc1ccc(NC(=O)c2cccc(C3(C#N)CC3)c2)cc1Oc1ccc2nc(NC(=O)CN3CCN(C)CC3)sc2n1` [Example C19, 3-(1-cyanocyclopropyl)-N-{4-methyl-3-[(2-{[(4-methylpiperazin-1-yl)acetyl]amino}[1,3]thiazolo[5,4-b]pyridin-5-yl)oxy]phenyl}benzamide] is less than 500 nM; for `CC(C)(C#N)c1cccc(C(=O)Nc2cccc(Oc3ccc4nc(NC(=O)C5CC5)sc4n3)c2)c1` [Example C23, 3-(1-cyano-1-methylethyl)-N-[3-({2-[(cyclopropylcarbonyl)amino][1,3]thiazolo[5,4-b]pyridin-5-yl}oxy)phenyl]benzamide] it is less than 500 nM; for `CC(C)(C#N)c1cccc(C(=O)Nc2cccc(Oc3ccc4nc(NC(=O)CO)sc4n3)c2)c1` [Example C24, 3-(1-cyano-1-methylethyl)-N-(3-{[2-(glycoloylamino)[1,3]thiazolo[5,4-b]pyridin-5-yl]oxy}phenyl)benzamide] it is less than 500 nM.
On the same count and under the same terms, the figure for `CN1CCN(CC(=O)Nc2nc3ccc(Oc4cccc(NC(=O)c5cccc(C6(C#N)CC6)c5)c4)nc3s2)CC1` [Example C28, 3-(1-cyanocyclopropyl)-N-{3-[(2-{[(4-methylpiperazin-1-yl)acetyl]amino}[1,3]thiazolo[5,4-b]pyridin-5-yl)oxy]phenyl}benzamide] is less than 500 nM; for `N#CC1(c2cccc(C(=O)Nc3cc(Oc4ccc5nc(NC(=O)C6CC6)sc5n4)ccc3F)c2Cl)CC1` [Example C66, 2-chloro-3-(1-cyanocyclopropyl)-N-[5-({2-[(cyclopropylcarbonyl)amino][1,3]thiazolo[5,4-b]pyridin-5-yl}oxy)-2-fluorophenyl]benzamide] it is less than 500 nM.
For `CCN1CCN(CC(=O)Nc2nc3ccc(Oc4cc(NC(=O)c5cccc(C(C)(C)C#N)c5)ccc4C)nc3s2)CC1` [Example C88, 3-(1-cyano-1-methylethyl)-N-{3-[(2-{[(4-ethylpiperazin-1-yl)acetyl]amino}[1,3]thiazolo[5,4-b]pyridin-5-yl)oxy]-4-methylphenyl}benzamide], the IC50 is less than 500 nM.
As to `CN(c1ccc(F)c(NC(=O)c2cccc(OC(C)(C)C#N)c2Cl)c1)c1ccc2nc(NC(=O)C3CC3)sc2n1` [Example C122, 2-chloro-3-(1-cyano-1-methylethoxy)-N-{5-[{2-[(cyclopropylcarbonyl)amino][1,3]thiazolo[5,4-b]pyridin-5-yl}(methyl)amino]-2-fluorophenyl}benzamide], the IC50 was less than 500 nM.
Regarding `CC(C)(C#N)Oc1cccc(C(=O)Nc2cc(Nc3ccc4nc(NC(=O)C5CC5)sc4n3)ccc2F)c1Cl` [Example C126, 2-chloro-3-(1-cyano-1-methylethoxy)-N-[5-({2-[(cyclopropylcarbonyl)amino][1,3]thiazolo[5,4-b]pyridin-5-yl}amino)-2-fluorophenyl]benzamide], the IC50 was less than 500 nM.
Same read-out and setting: under `CN1CCN(CC(=O)Nc2nc3cnc(N(C)c4cccc(NC(=O)c5cccc(C(C)(C)C#N)c5)c4)nc3s2)CC1` [Example D11, 3-(1-cyano-1-methylethyl)-N-{3-[methyl(2-{[(4-methylpiperazin-1-yl)acetyl]amino}[1,3]thiazolo[5,4-d]pyrimidin-5-yl)amino]phenyl}benzamide] stands less than 500 nM; under `Cc1ccc(NC(=O)c2cccc(C(C)(C)C#N)c2)cc1Nc1ncc2nc(NC(=O)C3CC3)sc2n1` [Example D25, 3-(1-cyano-1-methylethyl)-N-[3-({2-[(cyclopropylcarbonyl)amino][1,3]thiazolo[5,4-d]pyrimidin-5-yl}amino)-4-methylphenyl]benzamide], less than 500 nM.
Same read-out and setting: under `Cc1ccc(NC(=O)c2cccc(C(C)(C)C#N)c2)cc1Nc1ncc2nc(NC(=O)CN3CCN(C)CC3)sc2n1` [Example D33, 3-(1-cyano-1-methylethyl)-N-{4-methyl-3-[(2-{[(4-methylpiperazin-1-yl)acetyl]amino}[1,3]thiazolo[5,4-d]pyrimidin-5-yl)amino]phenyl}benzamide] stands less than 500 nM.
The same measure, in the same setting: under `CC(=O)Nc1nc2cnc(Nc3cc(NC(=O)c4cccc(C(C)(C)C#N)c4Cl)ccc3C)nc2s1` [Example D35, N-(3-{[2-(acetylamino)[1,3]thiazolo[5,4-d]pyrimidin-5-yl]amino}-4-methylphenyl)-2-chloro-3-(1-cyano-1-methylethyl)benzamide] stands less than 500 nM.
